# In patent publication US11046712B2, “Glycosidase inhibitors” (Asceneuron SA, priority 2014, dated 2021):
# Where two headings read alike, the source gives them in different places.
# Molecular target: His-Tagged hOGA (human O-GlcNAcase) (Homo sapiens (Human), UniProt O60502)
# Assay: Human O-GlcNAcase enzyme inhibition assay (Example B01)
# Format: biochemical
# Conditions: for IC50: OGA enzyme inhibition assay, activity range classes
# Sequence of His-Tagged hOGA (human O-GlcNAcase) (O60502 whole entry): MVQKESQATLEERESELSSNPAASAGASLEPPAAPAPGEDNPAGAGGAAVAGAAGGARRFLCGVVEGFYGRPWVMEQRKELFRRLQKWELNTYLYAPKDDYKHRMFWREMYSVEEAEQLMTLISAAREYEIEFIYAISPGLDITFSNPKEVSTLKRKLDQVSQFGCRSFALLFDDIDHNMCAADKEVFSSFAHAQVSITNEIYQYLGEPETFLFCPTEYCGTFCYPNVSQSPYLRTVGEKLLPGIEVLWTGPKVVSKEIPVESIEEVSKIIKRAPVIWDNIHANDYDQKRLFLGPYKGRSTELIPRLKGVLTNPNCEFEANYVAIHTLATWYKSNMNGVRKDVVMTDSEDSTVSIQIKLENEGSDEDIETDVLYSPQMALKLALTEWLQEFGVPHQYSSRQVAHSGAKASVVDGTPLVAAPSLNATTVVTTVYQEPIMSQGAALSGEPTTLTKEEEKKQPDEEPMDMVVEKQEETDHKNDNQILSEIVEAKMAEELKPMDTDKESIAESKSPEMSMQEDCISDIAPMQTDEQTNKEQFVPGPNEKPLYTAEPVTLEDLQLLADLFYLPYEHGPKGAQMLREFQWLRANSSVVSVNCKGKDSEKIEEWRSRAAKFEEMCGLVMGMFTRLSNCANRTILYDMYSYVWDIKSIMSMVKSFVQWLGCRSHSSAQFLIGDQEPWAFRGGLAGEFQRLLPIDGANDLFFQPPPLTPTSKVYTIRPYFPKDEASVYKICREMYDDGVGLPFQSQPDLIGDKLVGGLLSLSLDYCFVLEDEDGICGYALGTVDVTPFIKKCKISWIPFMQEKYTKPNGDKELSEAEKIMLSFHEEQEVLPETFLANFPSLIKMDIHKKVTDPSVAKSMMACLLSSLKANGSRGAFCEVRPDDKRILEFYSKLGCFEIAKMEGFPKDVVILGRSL
"OGA inhibitor activity, in words",Structure (SMILES),also measured
very potent OGA inhibitors,"C[C@@H](c1ccc2c(c1)OCO2)N1CCN(c2nnc(N)s2)CC1 [Example 132, (S)-5-(4-(1-(benzordiri,31dioxol-5-yl)ethyl)piperazin-1-yl)-1,3,4-thiadiazol-2-amine]",
very potent OGA inhibitors,"C[C@@H](c1ccc2c(c1)OCO2)N1CCN(c2ncc(C(C)(C)O)cn2)CC1 [Example 176, (S)-2-(2-(4-(1-(benzordiri,31dioxol-5-yl)ethyl)piperazin-1-yl)pyrimidin-5-yl)propan-2-ol]",
very potent OGA inhibitors,"CC(c1ccc2c(c1)OCO2)N1CCN(c2ncc(C(N)=O)s2)CC1 (racemic) [Example 48, 2-(4-(1-(Benzord1(1,3)dioxol-5-yl)ethyl)piperazin-1-yl)thiazole-5-carboxamide]",
very potent OGA inhibitors,C[C@@H](c1ccc2c(c1)OCO2)N1CCN(c2ncc(C(=O)N(C)C)cn2)CC1 [Example 137],
very potent OGA inhibitors,"CC(=O)Nc1cnc(N2CCN(C(C)c3ccc4c(c3)OCO4)CC2)nc1 (racemic) [Example 72, N-(2-(4-(1-(benzordlH,31dioxol-5-yl)ethyl)piperazin-1-yl)pyrimidin-5-yl)acetamide]",
very potent OGA inhibitors,CC(=O)Nc1cnc(N2CCN(C(C)c3ccc4c(c3)OCC4)CC2)nc1 (racemic) [Example 129],
very potent OGA inhibitors,"CNC(=O)c1cnc(N2CCN([C@@H](C)c3ccc4c(c3)OCO4)CC2)nc1 [Example 134, (S) 2-(4-(1-(benzordiri,31dioxol-5-yl)ethyl)piperazin-1-yl)-N-methylpyrimidine-5-carboxamide]",
very potent OGA inhibitors,"CC(c1ccc2c(c1)OCO2)N1CCN(c2ncc(CO)cn2)CC1 (racemic) [Example 52, (2-(4-(1-(benzordiri,31 dioxol-5-yl)ethyl)piperazin-1-yl)pyrimidin-5-yl)methanol]",
very potent OGA inhibitors,"CC(O)c1cnc(N2CCN([C@@H](C)c3ccc4c(c3)OCO4)CC2)nc1 (stereo in doubt) [Example 168, 1-(2-(4-((S)-1-(benzo[dl]1,31dioxol-5-yl)ethyl)piperazin-1-yl)pyrimidin-5-yl)ethan-1-ol]",

# The next lines start with the compound.
Structure (SMILES),"OGA inhibitor activity, in words",also measured
CC(=O)Nc1nnc(N2CCN(C(C)c3ccc4c(c3)OCC4)CC2)s1 (racemic) [Example 128],very potent OGA inhibitors,
"CNC(=O)c1cnc(N2CCN([C@@H](C)c3ccc4c(c3)OCO4)CC2)s1 (single isomer, unassigned) [Example 66]",,IC50 (OGA IC50 (M)): < 5e-08 M
"CC(=O)NCc1csc(N2CCN(C(C)c3ccc4c(c3)OCO4)CC2)n1 (stereo not shown) [Example 85, N-((2-(4-(1-(benzordiri,31dioxol-5-yl)ethyl)piperazin-1-yl)thiazol-4-yl)methyl)acetamide]",,IC50 (read-out: OGA IC50): < 5e-08 M
"CCNC(=O)c1cnc(N2CCN([C@@H](C)c3ccc4c(c3)OCO4)CC2)s1 (single isomer, unassigned) [Example 59]",,IC50 (OGA IC50 (M)): 1e-06 to 1e-05 M
"CC(=O)Nc1cnc(N2CCN(C(C)c3ccc4scnc4c3)CC2)nc1 (racemic) [Example 116, N-(2-(4-(1-(benzord1thiazol-5-yl)ethyl)piperazin-1-yl)pyrimidin-5-yl)acetamide]",very potent OGA inhibitors,
"CCNC(=O)c1cnc(N2CCN([C@@H](C)c3ccc4c(c3)OCCO4)CC2)s1 (single isomer, unassigned) [Example 62, (S)-2-(4-(1-(2,3-dihydrobenzorbiri,41dioxin-6-yl)ethyl)piperazin-1-yl)-N-ethylthiazole-5-carboxamide or (R)-2-(4-(1-(2,3-dihydrobenzorblH,41dioxin-6-yl)ethyl)piperazin-1-yl)-N-ethylthiazole-5-carboxamide]",,IC50 (OGA IC50 (M)): 5e-08 to 2e-07 M
CC(=O)Nc1nnc(N2CCN(C(C)c3ccc4scnc4c3)CC2)s1 (racemic) [Example 114],very potent OGA inhibitors,
COc1cc(C(C)N2CCN(c3nnc(NC(C)=O)s3)CC2)ccc1Cl (racemic) [Example 88],,IC50 (OGA IC50 (M)): 1e-06 to 1e-05 M
"CC(=O)Nc1cnc(N2CCN(C(C)c3ccc4cccnc4c3)CC2)nc1 (racemic) [Example 120, N-(2-(4-(1-(quinolin-7-yl)ethyl)piperazin-1-yl)pyrimidin-5-yl)acetamide]",,IC50 (OGA IC50 (M)): 2e-07 to 1e-06 M
"C[C@@H](c1ccc2c(c1)OCO2)N1CCN(c2nc3c(s2)CN(C)CC3)CC1 [Example 194, (S)-2-(4-(1-(benzordiri,31dioxol-5-yl)ethyl)piperazin-1-yl)-5-methyl-4,5,6,7-tetrahydrothiazoloi5,4-c1pyridine]",,IC50 (read-out: OGA IC50): < 5e-08 M
"C[C@@H](c1ccc2c(c1)OCO2)N1CCN(c2nc3c(s2)CNCC3)CC1 [Example 182, (S)-2-(4-(1-(benzofdlM,31dioxol-5-yl)ethyl)piperazin-1-yl)-4,5,6,7-tetrahydrothiazoloi5,4-c1pyridine]",very potent OGA inhibitors,
"CNC(=O)c1csc(N2CCN([C@@H](C)c3ccc4c(c3)OCCO4)CC2)n1 (single isomer, unassigned) [Example 57, (R)-2-(4-(1-(2,3-dihydrobenzorbin,41dioxin-6-yl)ethyl)piperazin-1-yl)-N-methylthiazole-4-carboxamide or (S)-2-(4-(1-(2,3-dihydrobenzorbiri,41dioxin-6-yl)ethyl)piperazin-1-yl)-N-methylthiazole-4-carboxamide]",,IC50 (read-out: OGA IC50): < 5e-08 M
"C[C@@H](c1ccc2c(c1)OCCO2)N1CCN(c2ncccn2)CC1 (single isomer, unassigned) [Example 34, (R)-2-(4-(1-(2,3-Dihydrobenzorbiri,41dioxin-6-yl)ethyl)piperazin-1-yl)pyrimidine or (S)-2-(4-(1-(2,3-Dihydrobenzorbiri^1dioxin-6-yl)ethyl)piperazin-1-yl)pyrimidine]",very potent OGA inhibitors,IC50 (read-out: OGA IC50): < 5e-08 M
"CNC(=O)c1cnc(N2CCN([C@@H](C)c3ccc4c(c3)OCO4)CC2)s1 (single isomer, unassigned) [Example 65]",,IC50 (OGA IC50 (M)): 1e-06 to 1e-05 M
"C[C@@H](c1ccc2c(c1)OCCO2)N1CCN(c2ncc(C(=O)N(C)CCN(C)C)s2)CC1 (single isomer, unassigned) [Example 71, (R)-2-(4-(1-(2,3-Dihydrobenzorb1H,41dioxin-6-yl)ethyl)piperazin-1-yl)-N-(2-(dimethylamino)ethyl)-N-methylthiazole-5-carboxamide or (S)-2-(4-(1-(2,3-dihydrobenzorbiri^1dioxin-6-yl)ethyl)piperazin-1-yl)-N-(2-(dimethylamino)ethyl)-N-methylthiazole-5-carboxamide]",,IC50 (read-out: OGA IC50): < 5e-08 M
